The results in this text go back to ChEMBL document CHEMBL1806359, “Synthesis and evaluation of bidentate ligands designed to interact with PDZ domains” (Bioorg Med Chem, 2011).

For this test, the target named is Disks large homolog 4 (Mus musculus) (UniProt Q62108). Briefly: Binding affinity to Swiss mouse brain PSD95 domain assessed as inhibition of PSD95-5-HT2A receptor C-terminal decapeptide interaction after overnight incubation by chemiluminescence assay. It counts as tissue-based.
Disks large homolog 4 (Mus musculus), sequence (Q62108 whole entry, looked up, the tested form may be a part): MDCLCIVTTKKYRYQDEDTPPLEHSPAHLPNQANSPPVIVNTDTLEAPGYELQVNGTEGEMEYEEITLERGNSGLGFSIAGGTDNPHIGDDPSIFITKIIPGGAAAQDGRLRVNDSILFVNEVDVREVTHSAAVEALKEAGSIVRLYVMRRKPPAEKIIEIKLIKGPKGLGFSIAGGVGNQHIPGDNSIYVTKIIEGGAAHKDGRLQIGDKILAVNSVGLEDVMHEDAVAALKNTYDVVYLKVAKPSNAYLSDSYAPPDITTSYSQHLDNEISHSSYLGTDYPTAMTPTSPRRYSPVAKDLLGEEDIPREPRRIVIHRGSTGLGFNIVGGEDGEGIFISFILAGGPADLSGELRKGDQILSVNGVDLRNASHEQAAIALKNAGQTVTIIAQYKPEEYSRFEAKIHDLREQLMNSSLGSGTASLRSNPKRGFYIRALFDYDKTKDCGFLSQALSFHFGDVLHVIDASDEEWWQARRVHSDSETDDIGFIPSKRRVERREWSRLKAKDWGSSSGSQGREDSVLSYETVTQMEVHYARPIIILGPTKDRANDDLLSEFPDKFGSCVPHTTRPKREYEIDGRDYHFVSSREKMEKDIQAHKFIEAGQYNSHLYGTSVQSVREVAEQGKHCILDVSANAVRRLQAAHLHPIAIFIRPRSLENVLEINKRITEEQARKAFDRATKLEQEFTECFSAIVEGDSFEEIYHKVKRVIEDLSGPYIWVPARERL

Take `Cc1c(C(=O)O)[nH]c2ccc(C(=O)O)cc12`: the inhibition result was “Dose-dependent effect”.
The same measure for `Cc1c(C(=O)NCCNC(=O)[C@@H](N)Cc2c[nH]c3ccccc23)[nH]c2ccc(C(=O)O)cc12`: “Dose-dependent effect”.
As for `Cc1c(C(=O)NCCN)[nH]c2ccc(C(=O)O)cc12`, the entry is “Dose-dependent effect”.
